pIC50: −log10 of the molar value.
Experiments:
NCI-H358 (K-Ras G12C) = test: CellTiter-Glo cell viability assay, 5-day treatment; format: cell-based; conditions: Homo sapiens, NCI-H358, H358, K-Ras G12C; read-out: Additional H358 Cell Viability assay data (K-Ras G12C, IC50)
Summary of the method: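 Seeded cells received test compound by direct dispensing. On day 5 the plates sat at room temperature approximately 30 minutes, then luminescence was measured. Data were normalized to DMSO and curve-fitted with four parameters.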

KRAS G12D = KRAS G12D (Homo sapiens, UniProt P01116+P62937, G12D); test: Disruption of BRAF RBD interaction with Ras (FRET / MOA assay, with Cyclophilin A); format: biochemical; conditions: read-out: KRAS G12D FRET data, IC50
KRAS G12D, sequence (P01116 1-169 isoform P01116-2 G12D limits assumed): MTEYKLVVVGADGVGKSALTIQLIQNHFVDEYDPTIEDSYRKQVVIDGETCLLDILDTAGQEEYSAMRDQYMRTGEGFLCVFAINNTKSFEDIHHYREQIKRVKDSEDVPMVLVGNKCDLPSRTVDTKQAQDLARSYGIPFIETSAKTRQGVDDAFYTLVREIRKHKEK
KRAS G12D, sequence (P62937 whole entry): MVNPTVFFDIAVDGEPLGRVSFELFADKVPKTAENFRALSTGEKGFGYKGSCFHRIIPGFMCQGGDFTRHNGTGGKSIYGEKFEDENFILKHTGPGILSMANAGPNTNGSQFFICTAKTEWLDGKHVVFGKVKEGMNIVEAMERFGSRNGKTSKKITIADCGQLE
Summary of the method: (§1)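 TR-FRET readout: a drop in ratio relative to DMSO wells marks disruption of the K-Ras:BRAF RBD complex via compound-induced K-Ras–Cyclophilin A ternary complex. Dosing used ten 3-fold steps from 30 μM final, 3 h at 25 °C, then Eu-anti-His 10 nM plus APC-anti-GST 50 nM for another 1.5 h. Values are IC50s.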

KRAS G12V = KRAS G12V (Homo sapiens, UniProt P01116+P62937, G12V); test: as above; format: biochemical; conditions: KRAS G12V; read-out: KRAS G12V FRET data IC50
KRAS G12V, sequence (P01116 1-169 isoform P01116-2 G12V limits assumed): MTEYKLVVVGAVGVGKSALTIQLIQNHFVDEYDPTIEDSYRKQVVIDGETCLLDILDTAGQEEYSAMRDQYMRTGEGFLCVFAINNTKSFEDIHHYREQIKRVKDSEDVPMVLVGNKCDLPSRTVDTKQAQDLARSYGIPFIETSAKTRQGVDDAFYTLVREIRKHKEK
KRAS G12V, sequence (P62937 whole entry): as the sequence (P62937 whole entry) above
Summary of the method: as §1

KRAS G12C = KRAS G12C (Homo sapiens, UniProt P01116+P62937, G12C); test: as above; format: biochemical; conditions: KRAS G12C; read-out: KRAS G12C FRET data IC50
KRAS G12C, sequence (P01116 1-169 isoform P01116-2 G12C): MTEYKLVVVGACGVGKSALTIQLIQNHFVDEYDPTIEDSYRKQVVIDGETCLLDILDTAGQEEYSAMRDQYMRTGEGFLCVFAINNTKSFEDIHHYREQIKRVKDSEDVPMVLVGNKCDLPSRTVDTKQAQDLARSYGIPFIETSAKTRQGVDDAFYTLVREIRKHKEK
KRAS G12C, sequence (P62937 whole entry): as the sequence (P62937 whole entry) above
Summary of the method: as §1

KRAS G12S = KRAS G12S (Homo sapiens, UniProt P01116+P62937, G12S); test: as above; format: biochemical; conditions: read-out: KRAS G12S FRET data, IC50
KRAS G12S, sequence (P01116 1-169 isoform P01116-2 G12S limits assumed): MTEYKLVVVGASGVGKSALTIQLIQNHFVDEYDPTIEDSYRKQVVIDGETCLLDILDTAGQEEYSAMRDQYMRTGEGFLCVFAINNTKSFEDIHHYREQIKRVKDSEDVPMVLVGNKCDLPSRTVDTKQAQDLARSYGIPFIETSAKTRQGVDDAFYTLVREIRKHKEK
KRAS G12S, sequence (P62937 whole entry): as the sequence (P62937 whole entry) above
Summary of the method: as §1

KRAS WT = KRAS WT (Homo sapiens, UniProt P01116+P62937); test: as above; format: biochemical; conditions: KRAS WT; read-out: KRAS WT FRET data IC50
KRAS WT, sequence (P01116 1-169 isoform P01116-2 limits assumed): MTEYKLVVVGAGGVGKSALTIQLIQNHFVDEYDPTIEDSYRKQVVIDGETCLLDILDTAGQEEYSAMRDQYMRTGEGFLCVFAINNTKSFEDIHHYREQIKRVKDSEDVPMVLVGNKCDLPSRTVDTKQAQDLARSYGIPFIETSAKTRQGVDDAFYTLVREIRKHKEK
KRAS WT, sequence (P62937 whole entry): as the sequence (P62937 whole entry) above
Summary of the method: as §1

KRAS G13D = KRAS G13D (Homo sapiens, UniProt P01116+P62937, G13D); test: as above; format: biochemical; conditions: KRAS G13D; read-out: KRAS G13D FRET data IC50
KRAS G13D, sequence (P01116 1-169 isoform P01116-2 G13D limits assumed): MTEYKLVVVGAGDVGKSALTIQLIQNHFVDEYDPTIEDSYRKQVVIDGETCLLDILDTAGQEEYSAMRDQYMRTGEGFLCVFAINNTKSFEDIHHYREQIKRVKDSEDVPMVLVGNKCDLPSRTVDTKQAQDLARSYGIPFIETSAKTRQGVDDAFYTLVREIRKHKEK
KRAS G13D, sequence (P62937 whole entry): as the sequence (P62937 whole entry) above
Summary of the method: as §1

KRAS G13C = KRAS G13C (Homo sapiens, UniProt P01116+P62937, G13C); test: as above; format: biochemical; conditions: KRAS G13C; read-out: KRAS G13C FRET data IC50
KRAS G13C, sequence (P01116 1-169 isoform P01116-2 G13C): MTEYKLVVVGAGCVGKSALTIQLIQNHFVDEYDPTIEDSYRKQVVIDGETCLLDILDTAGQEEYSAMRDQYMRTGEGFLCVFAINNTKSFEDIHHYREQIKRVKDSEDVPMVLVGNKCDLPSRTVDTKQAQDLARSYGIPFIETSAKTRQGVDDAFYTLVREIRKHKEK
KRAS G13C, sequence (P62937 whole entry): as the sequence (P62937 whole entry) above
Summary of the method: as §1

NRAS G12C = NRAS G12C (Homo sapiens, UniProt P01111+P62937, G12C); test: as above; format: biochemical; conditions: NRAS G12C; read-out: NRAS G12C FRET data IC50
NRAS G12C, sequence (P01111 whole entry G12C): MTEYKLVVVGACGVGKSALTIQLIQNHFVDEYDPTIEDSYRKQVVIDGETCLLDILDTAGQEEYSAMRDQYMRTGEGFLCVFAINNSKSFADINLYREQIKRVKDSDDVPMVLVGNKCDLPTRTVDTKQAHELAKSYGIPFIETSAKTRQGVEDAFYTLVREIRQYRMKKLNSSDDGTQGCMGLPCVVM
NRAS G12C, sequence (P62937 whole entry): as the sequence (P62937 whole entry) above

pIC50 (NCI-H358 (K-Ras G12C)) | pIC50 (KRAS G12D) | pIC50 (KRAS G12V) | pIC50 (KRAS G12C) | pIC50 (KRAS G12S) | pIC50 (KRAS WT) | pIC50 (KRAS G13D) | pIC50 (KRAS G13C) | pIC50 (NRAS G12C) | Structure (SMILES)
> 8.00 | < 5.00 | 5.00 to 6.00 | > 8.00 | 5.00 to 6.00 | 5.00 to 6.00 | < 5.00 | 5.00 to 6.00 | > 8.00 | CCn1c(-c2cccnc2[C@H](C)OC)c2c3cc(ccc31)-c1csc(n1)C[C@H](NC(=O)[C@H](COC1CN(C(=O)C#CC(C)(C)N(C)C)C1)OC)C(=O)N1CCC[C@H](N1)C(=O)OCC(C)(C)C2 (atropisomer, axis not shown) [Example A705]
7.00 to 8.00 | < 5.00 | 5.00 to 6.00 | 6.00 to 7.00 | 5.00 to 6.00 | 5.00 to 6.00 | 5.00 to 6.00 | 6.00 to 7.00 | 6.00 to 7.00 | C=CC(=O)N1CC(OC[C@H](C(=O)N[C@H]2Cc3cc(F)cc(c3)-c3ccc4c(c3)c(c(-c3cccnc3[C@H](C)OC)n4CC)CC(C)(C)COC(=O)[C@@H]3CCCN(N3)C2=O)C(C)C)C1 (atropisomer, axis not shown) [Example A725]
7.00 to 8.00 | 5.00 to 6.00 | 6.00 to 7.00 | 6.00 to 7.00 | 6.00 to 7.00 | 6.00 to 7.00 | 5.00 to 6.00 | 6.00 to 7.00 | 6.00 to 7.00 | C=CC(=O)N1CC[C@@H](N(C)C(=O)N(C)[C@H](C(=O)N[C@H]2Cc3nc(cs3)-c3ccc4c(c3)c(c(-c3cccnc3[C@H](C)OC)n4CC(F)(F)F)CC(C)(C)COC(=O)[C@@H]3CCCN(N3)C2=O)C(C)C)C1 (atropisomer, axis not shown) [Example A728]
> 8.00 | 5.00 to 6.00 | 5.00 to 6.00 | 7.00 to 8.00 | 6.00 to 7.00 | 6.00 to 7.00 | 6.00 to 7.00 | 6.00 to 7.00 | 7.00 to 8.00 | C=CC(=O)N1CC[C@@]2(CCN2C(=O)N(C)[C@H](C(=O)N[C@H]2Cc3nc(cs3)-c3ccc4c(c3)c(c(-c3cccnc3[C@H](C)OC)n4CC)CC(C)(C)COC(=O)C3CCCN(N3)C2=O)N(C)C)C1 (single isomer, unassigned) [Example A661]

Further lines, the compound ahead of its results:

Structure (SMILES) | pIC50 (NCI-H358 (K-Ras G12C)) | pIC50 (KRAS G12D) | pIC50 (KRAS G12V) | pIC50 (KRAS G12C) | pIC50 (KRAS G12S) | pIC50 (KRAS WT) | pIC50 (KRAS G13D) | pIC50 (KRAS G13C) | pIC50 (NRAS G12C)
CCn1c(-c2cccnc2[C@H](C)OC)c2c3cc(ccc31)-c1csc(n1)C[C@H](NC(=O)[C@H](C(C)C)N(C)C(=O)N(C)C1CN(C(=O)/C=C/C(C)(C)O)C1)C(=O)N1CCC[C@H](N1)C(=O)OCC(C)(C)C2 (atropisomer, axis not shown) [Example A350] | 6.00 to 7.00 | 5.00 to 6.00 | 6.00 to 7.00 | 7.00 to 8.00 | 6.00 to 7.00 | 6.00 to 7.00 | 6.00 to 7.00 | 6.00 to 7.00 | 7.00 to 8.00
CCn1c(-c2cccnc2[C@H](C)OC)c2c3cc(ccc31)-c1cccc(c1)C[C@H](NC(=O)[C@@H](COC1CN(C(=O)C#C[C@@H]3COCCN3C)C1)C(C)C)C(=O)N1CCC[C@H](N1)C(=O)OCC(C)(C)C2 (atropisomer, axis not shown) [Example A648] | 7.00 to 8.00 | < 5.00 | < 5.00 | 6.00 to 7.00 | < 5.00 | 5.00 to 6.00 | < 5.00 | 5.00 to 6.00 | 6.00 to 7.00
C=CC(=O)N1CC[C@]2(C1)OCN(C(=O)N(C)[C@H](C(=O)N[C@H]1Cc3cccc(n3)-c3ccc4c(c3)c(c(-c3cccnc3[C@H](C)OC)n4CC)CC(C)(C)COC(=O)[C@@H]3CCCN(N3)C1=O)C(C)C)C2=O (atropisomer, axis not shown) [Example A652] | 6.00 to 7.00 | < 5.00 | 5.00 to 6.00 | 6.00 to 7.00 | 5.00 to 6.00 | 5.00 to 6.00 | 5.00 to 6.00 | 6.00 to 7.00 | 6.00 to 7.00
C=CC(=O)N1CC[C@H](C(=O)N(C)[C@H](C(=O)N[C@H]2Cc3nsc(n3)-c3ccc4c(c3)c(c(-c3cccnc3[C@H](C)OC)n4CC)CC(C)(C)COC(=O)[C@@H]3CCCN(N3)C2=O)C(C)C)C1 (atropisomer, axis not shown) [Example A694] | 7.00 to 8.00 | 5.00 to 6.00 | 5.00 to 6.00 | 6.00 to 7.00 | 5.00 to 6.00 | 5.00 to 6.00 | 5.00 to 6.00 | 6.00 to 7.00 | 6.00 to 7.00
